In US20050245452A1, “Pharmaceutical use of novispirins” (Novozymes A/S, priority 2004, published 2005):
Ends that are not written are not given here.

Legend:
[1] = test system: P. acnes (erythromycin resistant); test: MIC on Propionebacterium acnes, erythromycin resistant strain; assay type: cell-based; details: clinically resistant to clindamycin and erythromycin
Method: (§1) Minimal Inhibitory Concentration (MIC) of Novispirin G10 (SEQ ID NO: 16) was evaluated against P. acnes. Two strains were tested—one of which is clinically resistant to clindamycin and erythromycin.

[2] = test system: P. acnes (erythromycin sensitive); test: MIC on Propionebacterium acnes, erythromycin sensitive strain; assay type: cell-based
Method: as §1

[3] = test system: Staphylococcus aureus (ATCC 25923); test: Staphylococcus aureus wound infection in pigs (wound chambers, 4 hour time course); assay type: in vivo, Göttinger minipigs; details: 100 micrograms/ml, 1 ml applied
Method: The bacterial strain, Staphylococcus aureus, used in the study was ATCC 25923. The amino acid sequence of Novispirin G10 is shown in SEQ ID NO: 16.
Novispirin G10 was diluted in 0.01% acetic acid containing 0.1% BSA with a final concentration of 1 mg (substrate)/ml (solution); 100 micrograms/ml; 10 micrograms/ml and 1 microgram/ml. The carrier control was 0.01% acetic acid containing 0.1% BSA. As a positive control was used Synthetic Protegrin 1 (Charité, Institut f. Biochemie d. Humboldt Universität Berlin) diluted in 0.01% acetic acid containing 0.1% BSA with a final concentration of 100 micrograms/ml.
The chambers are made of one piece of titanium, have a screw top cover (also made of titanium) and were built in teamwork with Cranio Construct Bochum. The chambers have a height of 14 mm, an inner diameter of 25 mm and an outer diameter of 32 mm without baseplate (with baseplate: 50 mm).
After providing permission to conduct experiments with vertebrates in compliance with German animal protection laws, Göttinger minipigs (Fa. Ellegaard, Dalmose, Denmark; female, 6 months old, 25-30 kg weight) were chosen to implant the chambers on. The pigs were kept at least 2 weeks in the stable, fed a standard porcine diet and housed at 20° C. to 30° C. in an atmosphere of approximately 65% humidity with a light cycle of 12 hours on and 12 hours off. The animals used for this study appeared, during the experiments, clinically healthy—rectal temperature and body weight remained normal over the observed period.
Before wounding the skin was surgically prepared, washed with soap and disinfected with Octenisept (S&M, Norderstedt, Germany) for five minutes. Twelve BO-Chambers were implanted on the pigs back and flank between the base of the scapula and the iliac crest. The wounds were spaced a minimum of 5 cm apart and were created in four rows parallel to the columna vertebralis, two rows on each side of the columna vertebrtalis. The exact size and shape of the wounds were ensured by a special custom-made “round-scalpel” (also built in teamwork with Cranio Construct Bochum), which has a diameter of 33 mm. Epidermal, dermal subcutaneous tissues were removed, possible bleedings stanched by bipolar diathermy. The chambers were placed with an additionally secant v-incision at positions 6 respectively 12 o'clock on the musculus thoracicus longus fascia and the muscle fascia of the external ripcage muscles. The incisions were sutured with 2/0 Monocryl followed by the closure of the chambers. Povidone-iodine salve (Betaisodonna-salve, Mundipharma, Austria) was smothered on the wound edges. The chambers were dressed with paraffin gauze (Jelonet, Smith & Nephew, Lohfelden, Germany) and sterile compresses. Dressings were changed every second day under sedation (as described above).
Bacterial Background of each chamber was measured every second day, to detect potential contamination. Only one contaminated chamber was detected. Seven days post operation ten chambers were inoculated with bacteria.
For bacteria progeny Staphylococcus aureus (ATCC 25923) was plated on LB-Agar plate and incubated at 37° C. for 18 hours. One colony was picked and transfered into 3 ml LB-Medium for over night culture at 37° C. at 300 rpm. Over night culture was diluted in 50 ml fresh LB-Medium and incubated for 2.5 hours at 37° C. at 200 rpm.
Bacteria were pelleted, 4000 rpm, 5 min, Mergafuge 1.0 R (Heraeus, Hanau, Germany), and resuspended in PBS. Amount of containg bacteria was detremined by OD600 nm-measurement and calculated as follows: Colony forming Unit/ml=OD600 nm×2.5×10^8 (bacteria)
To inoculate one chamber 5×10^8 were used.
The establishment of the infection was proven by the measurement of bacterial counts per chamber. All inoculated chambers were infected after two days. Chamber No. 2 keeps bacteria free.
At day four after infection the antimicrobial effect of the testing substrate was measured in a time course of 4 hours in duration. […]

| Compound | Minimal Inhibitory Concentration (MIC) [1] | Minimal Inhibitory Concentration (MIC) [2] | Mean CFU per ml sample volume (chamber fluid) ([3]; 0 hours) | Mean CFU per ml sample volume (chamber fluid) ([3]; 1 hour) | Mean CFU per ml sample volume (chamber fluid) ([3]; 2 hours) | Mean CFU per ml sample volume (chamber fluid) ([3]; 3 hours) | Mean CFU per ml sample volume (chamber fluid) ([3]; 4 hours) |
| --- | --- | --- | --- | --- | --- | --- | --- |
| CCC[C@@H]1C[C@@H](C(=O)N[C@@H]([C@H]2O[C@H](SC)[C@H](O)[C@@H](O)[C@H]2O)[C@H](C)Cl)N(C)C1 [Clindamycin] | 64 | 0.12 |  |  |  |  |  |
| CC[C@H]1OC(=O)[C@H](C)[C@@H](O[C@H]2C[C@@](C)(OC)[C@@H](O)[C@H](C)O2)[C@H](C)[C@@H](O[C@@H]2O[C@H](C)C[C@H](N(C)C)[C@H]2O)[C@](C)(O)C[C@@H](C)C(=O)[C@H](C)[C@@H](O)[C@]1(C)O [Erythromycin] | 64 | 0.25 |  |  |  |  |  |
| Protegrin 1: Synthetic Protegrin 1 (Charité, Humboldt Universität Berlin), used as a positive control at 100 micrograms/ml (RGGRLCYCRRRFCVCVGR; ends and bridges not checked; cysteine pairing not given here; UniProt P32194 131-148, looked up) [reference compound] |  |  | 13200000 CFU/ml | 88667 CFU/ml | 12800 CFU/ml | 3525 CFU/ml | 129000 CFU/ml |
